Here are results for 14 compounds from PubChem BioAssay (NCI).

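Test compounds were applied to cells in 96-well plates for 48 hours at 5 doses. TGI is the concentration that stops growth completely.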

Some test systems named below: NCI-H522 lung; HOP-92 NSCLC; BT-549 breast; MDA-MB-435; M14 melanoma; PC-3 prostate; TK-10 renal; A498 renal; DU-145 prostate; MDA-N.
Common to all, as to test: inhibition of tumour cell growth, NCI panel, 48 h

As to `Brc1ccc2c3c1[C@H]1O[C@H]1c1cccc(c1-3)[C@@H]1O[C@H]21`, the TGI amounted to 27.6 µM in the assay on NCI-H522 lung; 38.3 µM with HOP-92 NSCLC; 31.5 µM in the assay on BT-549 breast; 29.4 µM in the assay with MDA-MB-435; 32.4 µM with M14 melanoma; 33.4 µM in the assay on PC-3 prostate. Moreover, the TGI with TK-10 renal is 37.4 µM; in the assay with A498 renal it was 41.1 µM; in the assay on DU-145 prostate, 25.6 µM; in the assay with MDA-N, 35.4 µM.
Regarding `CCCCCCCC(CC(=O)NC(CO)C(=O)NC(CO)CC(C)C)OC(=O)CC(CCCCCCC)OC(=O)CC(CCCCCCC)OC1OC(C)C(O)C(OC2OC(C)C(O)C(O)C2OC(C)=O)C1O` (stereo not given), the TGI with NCI-H522 lung turned out to be 26.8 µM; in the assay on HOP-92 NSCLC it was 22 µM; with BT-549 breast, 25.1 µM; in the assay on MDA-MB-435, 13.8 µM; in the assay with M14 melanoma, 18.7 µM; in the assay on PC-3 prostate it was 15.8 µM. Also, the TGI in the assay on TK-10 renal is 26 µM; in the assay with A498 renal, 29.4 µM; with DU-145 prostate, 22.4 µM; in the assay with MDA-N, 16 µM.
For `CCCCCCNC(=O)CCC(NC(=O)c1ccc(N(C)Cc2cnc3nc(N)nc(N)c3n2)cc1)C(=O)NCCCCCC` (stereo not given), the TGI in the assay on NCI-H522 lung, in the assay on HOP-92 NSCLC, with BT-549 breast, in the assay on MDA-MB-435, in the assay with M14 melanoma and with PC-3 prostate was more than 100 µM in each case. Also, the TGI in the assay on TK-10 renal, with A498 renal, with DU-145 prostate and with MDA-N was more than 100 µM throughout.
On to `NNc1nncc2[nH]cnc12`, for which the TGI in the assay on BT-549 breast, in the assay with MDA-MB-435, in the assay with M14 melanoma, in the assay with PC-3 prostate, in the assay with TK-10 renal and in the assay with A498 renal was more than 100 µM each time. Besides, the TGI in the assay on DU-145 prostate and with MDA-N was more than 100 µM each time.
Take `CCOC(=O)c1sc2nc(SC)nc3c2c1NCN3c1ccc(F)c(F)c1`: the TGI in the assay with NCI-H522 lung was more than 100 µM; with HOP-92 NSCLC, 83 µM; in the assay on BT-549 breast, more than 66.5 µM; in the assay on MDA-MB-435, 41.7 µM; in the assay with M14 melanoma it was more than 100 µM; with PC-3 prostate it was more than 59.8 µM. For the same compound, the TGI is 64.1 µM in the assay on TK-10 renal, 35.6 µM with A498 renal, more than 100 µM with DU-145 prostate and more than 45.8 µM in the assay on MDA-N.
For `CCOC(=O)c1nc2ccccc2nc1Oc1ccc(C(=O)OC)cc1`, the TGI in the assay with HOP-92 NSCLC, with BT-549 breast, with MDA-MB-435, with M14 melanoma, in the assay with PC-3 prostate and in the assay on TK-10 renal was more than 100 µM each time. The TGI in the assay with A498 renal, with DU-145 prostate and in the assay on MDA-N was more than 100 µM throughout.
Regarding `CC(=O)OC(Cc1ccc2ccccc2n1)(C(F)(F)F)C(F)(F)F`, the TGI in the assay on NCI-H522 lung was 2.16 µM; with HOP-92 NSCLC, 0.933 µM; in the assay with BT-549 breast it was 4.17 µM; in the assay on MDA-MB-435 it was 3.55 µM; with M14 melanoma, 3.48 µM; in the assay with PC-3 prostate, 11.7 µM. Further, the TGI in the assay on TK-10 renal came to 2.55 µM; in the assay on A498 renal, 14.6 µM; in the assay with DU-145 prostate, 17.9 µM; with MDA-N, 3.54 µM.
Consider `CCCCCc1cc2cc3c(c(O)c2c(=O)[nH]1)C1(CCC3)C(O)=c2c(=O)c3c(=O)cc(OC)c(=O)c=3c(=O)c2=C1O` (stereo not given), for which the TGI in the assay with NCI-H522 lung is 1.87 µM; in the assay with HOP-92 NSCLC, 1.3 µM; in the assay with BT-549 breast it was 3.33 µM; with MDA-MB-435 it was 3.13 µM; in the assay on M14 melanoma, 3.33 µM; in the assay with PC-3 prostate, 3.66 µM. Besides, the TGI with A498 renal came out at 4.58 µM; with DU-145 prostate it was 3.34 µM; in the assay on MDA-N, 3.84 µM.
For `CCN(CC)C(=S)Nc1ccc(-c2cc3ccc(O)cc3oc2=O)cc1`, the TGI with NCI-H522 lung is 43.7 µM; in the assay on BT-549 breast, 85 µM; in the assay on MDA-MB-435 it was more than 100 µM; with M14 melanoma it was more than 100 µM; in the assay on PC-3 prostate, more than 100 µM; with TK-10 renal, more than 100 µM. The TGI with A498 renal is 96.5 µM; in the assay with DU-145 prostate, more than 100 µM; in the assay on MDA-N, more than 100 µM.
On to `CC1=NN(C(=O)CC(=O)Nc2ccccc2Cl)C(=O)C1N=Nc1ccc(S(=O)(=O)c2ccc(N=NC3C(=O)N(C(=O)CC(=O)Nc4ccccc4Cl)N=C3C)cc2)cc1` (stereo not given), for which the TGI in the assay with NCI-H522 lung, with HOP-92 NSCLC, in the assay on BT-549 breast, in the assay with MDA-MB-435, in the assay with M14 melanoma and with PC-3 prostate was more than 100 µM each time. The TGI in the assay on TK-10 renal, in the assay with DU-145 prostate and in the assay with MDA-N was more than 100 µM each time.
Consider `COc1cc(C2c3cc4c(cc3OC(Nc3ccccc3)C2C)OCO4)cc(OC)c1O` (stereo not given), for which the TGI came out at 9.16 µM in the assay on NCI-H522 lung; 48.7 µM with HOP-92 NSCLC; 26 µM in the assay with BT-549 breast; 1.95 µM in the assay with MDA-MB-435; 60.7 µM in the assay with M14 melanoma; 13.4 µM with PC-3 prostate. For the same compound, the figures for the TGI in the assay with TK-10 renal, with DU-145 prostate and with MDA-N were 20.2 µM, 19.6 µM and 3.01 µM, respectively.
Take `COC1CC(OC2C(C)OC(OC3C(C)OC(OC4C(O)CC(O[C@H]5CC[C@@]6(C)C(=CC[C@]7(O)[C@@H]6C[C@@H](OC(C)=O)[C@@]6(C)[C@]7(O)CC[C@@]6(O)C(C)=O)C5)OC4C)CC3OC)CC2OC)OC(C)C1O` (stereo not given in full): the TGI in the assay on NCI-H522 lung, in the assay on HOP-92 NSCLC, with BT-549 breast, in the assay with MDA-MB-435, in the assay with M14 melanoma and in the assay on PC-3 prostate was more than 12.5 µM in each case. Besides, the TGI with TK-10 renal, with DU-145 prostate and in the assay with MDA-N was more than 12.5 µM in each case.
Regarding `CC(=O)OCc1cncn1S(=O)(=O)c1ccc(C)cc1`, the TGI in the assay on NCI-H522 lung is more than 100 µM; in the assay on HOP-92 NSCLC it was more than 100 µM; in the assay with BT-549 breast it was more than 100 µM; in the assay with MDA-MB-435 it was more than 78.9 µM; with M14 melanoma it was more than 100 µM; in the assay with PC-3 prostate, more than 100 µM. For the same compound, the TGI was more than 100 µM in the assay on TK-10 renal, more than 100 µM with DU-145 prostate and 45.6 µM in the assay on MDA-N.
Take `COc1ccc(/C=C2\CCS(=O)(=O)c3ccccc3C2=O)cc1OC`: the TGI in the assay with HOP-92 NSCLC is more than 100 µM; in the assay on BT-549 breast, 76.2 µM; in the assay with MDA-MB-435 it was more than 100 µM; with M14 melanoma, more than 100 µM; in the assay with PC-3 prostate, more than 100 µM; in the assay with TK-10 renal it was more than 100 µM. The TGI in the assay with A498 renal is 73.7 µM; in the assay with DU-145 prostate, more than 100 µM; in the assay on MDA-N, more than 100 µM.
